Measured values from patent US12630563B2, “Macrocyclic RIP2-kinase inhibitors” (Oncodesign S.A., priority 2020, dated 2026).

These compounds were tested against T1, recombinant hRIPK2 protein (kinase domain aa 1-299-His-tagged) (Homo sapiens, UniProt O43353) (assay: RIPK2 AlphaLISA assay (displacement of bead-bound CZC-8004 from hRIPK2)). Settings: recombinant hRIPK2 kinase domain 10 nM, 2 h at 23° C.
T1 construct: kinase domain aa 1-299-His-tagged; purchased Life Technologies PR7829A
Format: binding
Outline: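 His-tagged kinase domain (10 nM, as diluted) was mixed with compound (0.8% DMSO), acceptor beads bearing the probe CZC-8004 and Ni2+ donor beads. After 2 h at 23 °C, AlphaLISA signal was read. Loss of signal reflects displacement of the probe from RIPK2.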

T1 sequence (O43353 1-299): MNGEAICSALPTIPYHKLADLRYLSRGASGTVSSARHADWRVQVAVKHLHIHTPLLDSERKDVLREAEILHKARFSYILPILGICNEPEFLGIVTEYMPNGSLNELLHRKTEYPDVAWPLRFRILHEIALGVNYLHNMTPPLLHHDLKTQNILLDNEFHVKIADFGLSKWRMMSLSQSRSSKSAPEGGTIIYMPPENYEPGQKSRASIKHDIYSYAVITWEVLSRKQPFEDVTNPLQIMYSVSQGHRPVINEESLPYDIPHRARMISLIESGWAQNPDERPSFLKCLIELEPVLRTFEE

| IC50 | SMILES |
| --- | --- |
| < 10 nM | COCc1cc2cc(c1)-c1cnn3cc(C)c(nc13)OC[C@@H]1CC(OC)C(=O)N1CCN2 (single isomer, unassigned) [Example 66, (12R or S,14S)-12-methoxy-4-(methoxymethyl)-18-methyl-16-oxa-7,10,20,21,24-pentaazapenta cyclo[15.5.2.1^2,6.0^10,14.0^20,23]pentacosa-1(23),2,4,6(25),17(24), 18,21-heptaen-11-one] |
| < 10 nM | CO[C@@H]1C[C@H]2COc3ccn4ncc(c4n3)-c3cc(cc(-n4nccc4C)c3)NCCN2C1=O [Example 43, (12R,14S)-12-methoxy-4-(5-methyl-1H-pyrazol-1-yl)-16-oxa-7,10,20,21,24-pentaazapentacyclo[15.5.2.1^2,6.0^10,^14.0^20,^23]pentacosa-1(23),2(25),3,5,17(24),18,21-heptaen-11-one] |
| < 10 nM | CO[C@@H]1C[C@H]2COc3nc4c(cnn4cc3-c3cnn(C)c3C)-c3cc(F)cc(c3)NCCN2C1=O [Example 68] |
| < 10 nM | CCN(C)C(=O)c1cc2cc(c1)-c1cnn3ccc(nc13)OC[C@@H]1C[C@@H](OC)C(=O)N1CCN2 [Example 56, (12R,14S)-N-ethyl-12-methoxy-N-methyl-11-oxo-16-oxa-7,10,20,21,24-pentaazapentacyclo[15.5.2.1^2,6.0^10,^14.0^20,^23]pentacosa-1(23),2,4,6(25),17(24),18,21-heptaene-4-carboxamide] |
| < 10 nM | CCO[C@@H]1C[C@H]2COc3ccn4ncc(c4n3)-c3cc(cc(OC)c3)NCCN2C1=O [Example 6, (12R,14S)-12-ethoxy-4-methoxy-16-oxa-7,10,20,21,24-pentaazapentacyclo[15.5.2.1^2,6.0^10,^14.0^20,^23]pentacosa-1(23),2,4,6(25),17(24),18,21-heptaen-11-one] |
| < 10 nM | COCCO[C@@H]1C[C@H]2COc3nc4c(cnn4cc3OCC3CC3)-c3cc(cc(OC)c3)NCCN2C1=O [Example 123, (12R,14S)-18-(cyclopropylmethoxy)-4-methoxy-12-(2-methoxyethoxy)-16-oxa-7,10,20,21,24-pentaazapentacyclo[15.5.2. 1^2,6.0^10,^14.0^20,^23]pentacosa-1(23),2(25),3,5,17(24),18,21-heptaen-11-one] |
| < 10 nM | COc1cc2cc(c1)-c1cnn3ccc(nc13)OC[C@@H]1C[C@@H](OCC3CC3)C(=O)N1CCN2 [Example 22, (12R,14S)-12-(cyclopropylmethoxy)-4-methoxy-16-oxa-7,10,20,21,24-pentaazapentacyclo[15.5.2.1^2,6.0^10,^14.0^20,^23]pentacosa-1(23),2(25),3,5,17(24),18,21-heptaen-11-one] |
| 100 to 11000 nM | CO[C@@H]1C[C@H]2COc3nc4c(cnn4cc3C)-c3cc(cc(OCc4cnn(C)c4)c3)NCCN2C1=O [Example 51, (12R,14S)-12-methoxy-18-methyl-4-[(1-methyl-1H-pyrazol-4-yl)methoxy]-16-oxa-7,10,20,21,24-pentaazapentacyclo[15.5.2.1^2,6.0^10,^14.0^20,^23]pentacosa-1(23),2,4,6(25),17(24),18,21-heptaen-11-one] |
| < 10 nM | CCOc1cc2cc(c1)-c1cnn3ccc(nc13)OC[C@@H]1C[C@@H](OC)C(=O)N1CCN2 [Example 7, (12R,14S)-4-ethoxy-12-methoxy-16-oxa-7,10,20,21,24-pentaazapentacyclo[15.5.2.1^2,6.0^10,^14.0^20,^23]pentacosa-1(23),2(25),3,5,17(24),18,21-heptaen-11-one] |
| < 10 nM | C#Cc1cc2cc(c1)-c1cnn3ccc(nc13)OC[C@@H]1C[C@@H](OC)C(=O)N1CCN2 [Example 70, (12R,14S)-4-ethynyl-12-methoxy-16-oxa-7,10,20,21,24-pentaazapentacyclo[15.5.2.1^2,6.0^1°,^14.0^2°,^23]pentacosa-1(23),2(25),3,5,17(24),18,21-heptaen-11-one] |
| < 10 nM | COCCO[C@@H]1C[C@H]2COc3nc4c(cnn4cc3OC)-c3cc(cc(C(C)=O)c3)NCCN2C1=O [Example 99, (12R,14S)-4-acetyl-18-methoxy-12-(2-methoxyethoxy)-16-oxa-7,10,20,21,24-pentaazapentacyclo[15.5.2.1^2,6.0^10,^14.0^20,^23]pentacosa-1(23),2(25),3,5,17(24),18,21-heptaen-11-one] |
| < 10 nM | CCO[C@@H]1C[C@H]2COc3ccn4ncc(c4n3)-c3cc(O)cc(c3)NCCN2C1=O [Example 96, (12R,14S)-12-ethoxy-4-hydroxy-16-oxa-7,10,20,21,24-pentaazapentacyclo[15.5.2.1^2,6.0^1°,^14.0^2°,^23]pentacosa-1(23),2(25),3,5,17(24),18,21-heptaen-11-one] |
| < 10 nM | COc1cc2cc(c1)-c1cnn3ccc(nc13)OC[C@@H]1C[C@@H](OCC3CCO3)C(=O)N1CCN2 (stereo partly drawn) [Example 120, (12R,14S)-4-methoxy-12-(oxetan-2-ylmethoxy)-16-oxa-7,10,20,21,24-pentaazapentacyclo[15.5.2.1^2,6.0^1°,^14.0^2°,^23]pentacosa-1(23),2,4,6(25),17(24),18,21-heptaen-11-one] |
| < 10 nM | COCC1C[C@H]2COc3ccn4ncc(c4n3)-c3cc(F)cc(c3)NCCN2C1=O (single isomer, unassigned) [Example 32] |
| < 10 nM | CCO[C@@H]1C[C@H]2COc3ccn4ncc(c4n3)-c3cc(cc(C(=O)N(C)OC)c3)NCCN2C1=O [Example 57, (12R,14S)-12-ethoxy-N-methoxy-N-methyl-11-oxo-16-oxa-7,10,20,21,24-pentaazapentacyclo[15.5.2.1^2,6.0^10,^14.0^20,^23]pentacosa-1(23),2(25),3,5,17(24),18,21-heptaene-4-carboxamide] |
| < 10 nM | COc1cc2cc(c1F)NCCN1C(=O)[C@H](OC)C[C@H]1COc1ccn3ncc-2c3n1 [Example 27, (12R,14S)-5-fluoro-4,12-dimethoxy-16-oxa-7,10,20,21,24-pentaazapentacyclo[15.5.2.1^2,6.0^10,^14.0^20,^23]pentacosa-1(23),2,4,6(25),17(24),18,21-heptaen-11-one] |
| < 10 nM | CCOc1cc2cc(c1)-c1cnn3cc(OC)c(nc13)OC[C@@H]1C[C@@H](OCCOC)C(=O)N1CCN2 [Example 140, (12R,14S)-4-ethoxy-18-methoxy-12-(2-methoxyethoxy)-16-oxa-7,10,20,21,24-pentaazapentacyclo[15.5.2.1^2,6.0^10,^14.0^20,^23]pentacosa-1(23),2,4,6(25),17(24),18,21-heptaen-11-one] |
| < 10 nM | CO[C@@H]1C[C@H]2COc3nc4c(cnn4cc3C)-c3cc(cc(C(=O)N(C)OC)c3)NCCN2C1=O [Example 63, (12R,14S)-N,12-dimethoxy-N,18-dimethyl-11-oxo-16-oxa-7,10,20,21,24-pentaazapentacyclo[15.5.2.1^2,6.0^10,^14.0^20,^23]pentacosa-1(23),2,4,6(25),17(24),18,21-heptaene-4-carboxamide] |
| < 10 nM | COCCO[C@@H]1C[C@H]2COc3nc4c(cnn4cc3OC)-c3cc(C#N)cc(c3)NCCN2C1=O [Example 145, (12R,14S)-18-methoxy-12-(2-methoxyethoxy)-11-oxo-16-oxa-7,10,20,21,24-pentaazapentacyclo[15.5.2.1^2,6.0^10,^14.0^20,^23]pentacosa-1(23),2,4,6(25),17(24),18,21-heptaene-4-carbonitrile] |
| < 10 nM | COc1cc2cc(c1)-c1cnn3ccc(nc13)OC[C@@H]1C[C@@H](OC)C(=O)N1CC(C)N2 (single isomer, unassigned) [Example 105, (8R*,12R,14S)-4,12-dimethoxy-8-methyl-16-oxa-7,10,20,21,24-pentaazapentacyclo[15.5.2.1^2,6.0^1°,^14.0^2°,^23]pentacosa-1(23),2,4,6(25),17(24),18,21-heptaen-11-one] |
| 10 to 100 nM | CO[C@@H]1C[C@H]2COc3ccn4ncc(c4n3)-c3cc(cc(OCc4cnn(C)c4)c3)NCCN2C1=O [Example 46, (12R,14S)-12-methoxy-4-[(1-methyl-1H-pyrazol-4-yl)methoxy]-16-oxa-7,10,20,21,24-pentaazapentacyclo[15.5.2.1^2,6.0^10,^14.0^20,^23]pentacosa-1(23),2,4,6(25),17(24),18,21-heptaen-11-one] |
| < 10 nM | [2H]C([2H])([2H])O[C@@H]1C[C@H]2COc3ccn4ncc(c4n3)-c3cc(F)cc(c3)NCCN2C1=O [Example 36, (12R,14S)-4-fluoro-12-(^2H3)methoxy-16-oxa-7,10,20,21,24-pentaazapentacyclo[15.5.2.1^2,6.0^10,^14.0^20,^23]pentacosa-1(23),2(25),3,5,17(24),18,21-heptaen-11-one] |
| < 10 nM | COCCO[C@@H]1C[C@H]2COc3ccn4ncc(c4n3)-c3cc(Cl)cc(c3)NCCN2C1=O (racemic) [Example 116, (12R,14S)-4-chloro-12-(2-methoxyethoxy)-16-oxa-7,10,20,21,24-pentaazapentacyclo[15.5.2.1^2,6.0^10,^14.0^20,^23]pentacosa-1(23),2,4,6(25),17(24),18,21-heptaen-11-one] |
| < 10 nM | CO[C@@H]1C[C@H]2COc3ccn4ncc(c4n3)-c3cc(cc(OC(C)C)c3)NCCN2C1=O [Example 8, (12R,14S)-12-methoxy-4-(propan-2-yloxy)-16-oxa-7,10,20,21,24-pentaazapentacyclo[15.5.2.1^2,6.0^10,^14.0^20,^23]pentacosa-1(23),2,4,6(25),17(24),18,21-heptaen-11-one] |
| 10 to 100 nM | CO[C@@H]1C[C@H]2COc3ccn4ncc(c4n3)-c3cc(F)cc(c3)N(C)CCN2C1=O [Example 75, (12R,14S)-4-fluoro-12-methoxy-7-methyl-16-oxa-7,10,20,21,24-pentaazapentacyclo[15.5.2.1^2,6.0^1°,^14.0^2°,^23]pentacosa-1(23),2(25),3,5,17(24),18,21-heptaen-11-one] |

| SMILES | IC50 |
| --- | --- |
| O=C1[C@H](OC2CCC2)C[C@H]2COc3ccn4ncc(c4n3)-c3cc(F)cc(c3)NCCN12 [Example 10, (12R,14S)-12-cyclobutoxy-4-fluoro-16-oxa-7,10,20,21,24-pentaazapentacyclo[15.5.2.1^2,6.0^10,^14.0^20,^23]pentacosa-1(23),2,4,6(25),17(24),18,21-heptaen-11-one] | < 10 nM |
